Measured values reported in ChEMBL document CHEMBL1201862, “PubChem BioAssay data set” (2004).
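Dose response: 5 concentrations. Exposure: 48 h. Format: 96-well plates. Endpoint: linear interpolation; highest concentration if not reached. Abbreviation: GI50, concentration required for 50% inhibition of growth.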 The source made the active and inactive calls. Rule as the data show it: active = GI50 up to about 1.1 µM and inactive = higher.

What was measured:
Experiment in all cases: growth of human tumour cells (NCI), 48 h
HOP-92 = tested on: HOP-92
SN12C = tested on: SN12C
NCI-H23 = tested on: NCI-H23
KM12 = tested on: KM12
SNB-19 = tested on: SNB-19
T47D = tested on: T47D
SK-MEL-2 = tested on: SK-MEL-2
A498 = tested on: A498
RPMI-8226 = tested on: RPMI-8226
SW-620 = tested on: SW-620
U-251 = tested on: U-251
HCT-116 = tested on: HCT-116
SNB-75 = tested on: SNB-75
LOX IMVI = tested on: LOX IMVI
PC-3 = tested on: PC-3
SK-MEL-5 = tested on: SK-MEL-5
Malme-3M = tested on: Malme-3M
HT-29 = tested on: HT-29
NCI-H522 = tested on: NCI-H522
DU-145 = tested on: DU-145
UO-31 = tested on: UO-31
COLO 205 = tested on: COLO 205
BT-549 = tested on: BT-549
SK-OV-3 = tested on: SK-OV-3
M14 = tested on: M14
SF-295 = tested on: SF-295
TK-10 = tested on: TK-10
SK-MEL-28 = tested on: SK-MEL-28
SF-539 = tested on: SF-539
MDA-N = tested on: MDA-N
CCRF-CEM = tested on: CCRF-CEM
EKVX = tested on: EKVX
UACC-257 = tested on: UACC-257
MOLT-4 = tested on: MOLT-4
786-0 = tested on: 786-0
MCF7 = tested on: MCF7
NCI-H460 = tested on: NCI-H460
OVCAR-3 = tested on: OVCAR-3
CAKI-1 = tested on: CAKI-1
Hs-578T = tested on: Hs-578T
SF-268 = tested on: SF-268
ACHN = tested on: ACHN
NCI-H226 = tested on: NCI-H226
HCC 2998 = tested on: HCC 2998
HOP-62 = tested on: HOP-62
OVCAR-4 = tested on: OVCAR-4
MDA-MB-435 = tested on: MDA-MB-435
OVCAR-8 = tested on: OVCAR-8
HCT-15 = tested on: HCT-15
K562 = tested on: K562
MDA-MB-231 = tested on: MDA-MB-231
SR = tested on: SR
OVCAR-5 = tested on: OVCAR-5
UACC-62 = tested on: UACC-62
A549 = tested on: A549
HL-60 = tested on: HL-60
RXF 393 = tested on: RXF 393
IGROV-1 = tested on: IGROV-1
NCI/ADR-RES = tested on: NCI/ADR-RES

Q: Which results are given for `CC1CC2=C(C1)C(C1(C)C(=O)CC3C(C1=O)C3(C)C)C(C)C2=O` (stereo not drawn)?
A: GI50 (HOP-92): > 100 µM (inactive); GI50 (SN12C): > 100 µM (inactive); GI50 (NCI-H23): > 100 µM (inactive); GI50 (KM12): > 100 µM (inactive); GI50 (SNB-19): > 100 µM (inactive); GI50 (T47D): > 100 µM (inactive); GI50 (SK-MEL-2): > 100 µM (inactive); GI50 (A498): > 100 µM (inactive); GI50 (RPMI-8226): > 100 µM (inactive); GI50 (SW-620): > 100 µM (inactive); GI50 (U-251): > 100 µM (inactive); GI50 (HCT-116): > 100 µM (inactive); GI50 (SNB-75): > 100 µM (inactive); GI50 (LOX IMVI): > 100 µM (inactive); GI50 (PC-3): > 100 µM (inactive); GI50 (SK-MEL-5): > 100 µM (inactive); GI50 (Malme-3M): > 100 µM (inactive); GI50 (HT-29): > 100 µM (inactive); GI50 (NCI-H522): > 100 µM (inactive); GI50 (DU-145): > 100 µM (inactive); GI50 (UO-31): 99.5 µM (inactive); GI50 (COLO 205): > 100 µM (inactive); GI50 (BT-549): > 100 µM (inactive); GI50 (SK-OV-3): > 100 µM (inactive); GI50 (M14): > 100 µM (inactive); GI50 (SF-295): > 100 µM (inactive); GI50 (TK-10): > 100 µM (inactive); GI50 (SK-MEL-28): > 100 µM (inactive); GI50 (SF-539): > 100 µM (inactive); GI50 (MDA-N): > 100 µM (inactive); GI50 (CCRF-CEM): > 100 µM (inactive); GI50 (EKVX): > 100 µM (inactive); GI50 (UACC-257): > 100 µM (inactive); GI50 (MOLT-4): 62.7 µM (inactive); GI50 (786-0): > 100 µM (inactive); GI50 (MCF7): > 100 µM (inactive); GI50 (NCI-H460): > 100 µM (inactive); GI50 (OVCAR-3): > 100 µM (inactive); GI50 (CAKI-1): > 100 µM (inactive); GI50 (Hs-578T): > 100 µM (inactive); GI50 (SF-268): > 100 µM (inactive); GI50 (ACHN): > 100 µM (inactive); GI50 (NCI-H226): > 100 µM (inactive); GI50 (HCC 2998): > 100 µM (inactive); GI50 (HOP-62): > 100 µM (inactive); GI50 (OVCAR-4): > 100 µM (inactive); GI50 (MDA-MB-435): > 100 µM (inactive); GI50 (OVCAR-8): > 100 µM (inactive); GI50 (HCT-15): > 100 µM; GI50 (K562): > 100 µM (inactive); GI50 (MDA-MB-231): > 100 µM (inactive); GI50 (SR): > 100 µM (inactive); GI50 (OVCAR-5): > 100 µM (inactive); GI50 (UACC-62): > 100 µM (inactive); GI50 (A549): > 100 µM (inactive); GI50 (HL-60): > 100 µM (inactive); GI50 (RXF 393): > 100 µM (inactive); GI50 (IGROV-1): > 100 µM (inactive)

Q: `O=C1C(C(O)(C(F)(F)Cl)C(F)(F)Cl)CCCC1C(O)(C(F)(F)Cl)C(F)(F)Cl` (stereo not drawn) was tested. Which GI50 (HOP-92) did it give?
A: 5.11 µM (inactive)

Q: What about the GI50 (NCI-H23) of the same molecule?
A: > 10 µM (inactive)

Q: What about the GI50 (KM12) of the same molecule?
A: > 10 µM (inactive)

Q: And the GI50 (SNB-19)?
A: > 10 µM (inactive)

Q: And the GI50 (T47D)?
A: > 10 µM (inactive)

Q: What about the GI50 (SK-MEL-2) of the same molecule?
A: > 10 µM (inactive)

Q: What about the GI50 (A498) of the same molecule?
A: > 10 µM (inactive)

Q: What about the GI50 (SW-620) of the same molecule?
A: > 10 µM (inactive)

Q: What about the GI50 (U-251) of the same molecule?
A: > 10 µM (inactive)

Q: What about the GI50 (HCT-116) of the same molecule?
A: > 10 µM (inactive)

Q: And the GI50 (NCI/ADR-RES)?
A: > 10 µM (inactive)

Q: And the GI50 (LOX IMVI)?
A: > 10 µM (inactive)

Q: And the GI50 (PC-3)?
A: > 10 µM (inactive)

Q: What about the GI50 (SK-MEL-5) of the same molecule?
A: > 10 µM (inactive)

Q: What about the GI50 (Malme-3M) of the same molecule?
A: > 10 µM (inactive)

Q: What about the GI50 (HT-29) of the same molecule?
A: > 10 µM (inactive)

Q: And the GI50 (NCI-H522)?
A: > 10 µM (inactive)

Q: What about the GI50 (DU-145) of the same molecule?
A: > 10 µM (inactive)

Q: And the GI50 (COLO 205)?
A: > 10 µM (inactive)

Q: What about the GI50 (BT-549) of the same molecule?
A: > 10 µM (inactive)

Q: What about the GI50 (SK-OV-3) of the same molecule?
A: > 10 µM (inactive)

Q: And the GI50 (M14)?
A: > 10 µM (inactive)

Q: And the GI50 (SF-295)?
A: > 10 µM (inactive)

Q: What about the GI50 (TK-10) of the same molecule?
A: > 10 µM (inactive)

Q: And the GI50 (SK-MEL-28)?
A: > 10 µM (inactive)

Q: And the GI50 (SF-539)?
A: > 10 µM (inactive)

Q: And the GI50 (MDA-N)?
A: > 10 µM (inactive)

Q: And the GI50 (EKVX)?
A: > 10 µM (inactive)

Q: And the GI50 (UACC-257)?
A: > 10 µM (inactive)

Q: And the GI50 (786-0)?
A: > 10 µM (inactive)

Q: What about the GI50 (MCF7) of the same molecule?
A: > 10 µM (inactive)

Q: What about the GI50 (NCI-H460) of the same molecule?
A: > 10 µM (inactive)

Q: And the GI50 (OVCAR-3)?
A: > 10 µM (inactive)

Q: And the GI50 (CAKI-1)?
A: > 10 µM (inactive)

Q: What about the GI50 (Hs-578T) of the same molecule?
A: > 10 µM (inactive)

Q: And the GI50 (SF-268)?
A: > 10 µM (inactive)

Q: And the GI50 (ACHN)?
A: > 10 µM (inactive)

Q: And the GI50 (NCI-H226)?
A: > 10 µM (inactive)

Q: And the GI50 (HCC 2998)?
A: > 10 µM (inactive)

Q: What about the GI50 (HOP-62) of the same molecule?
A: > 10 µM (inactive)

Q: And the GI50 (OVCAR-4)?
A: > 10 µM (inactive)

Q: And the GI50 (MDA-MB-435)?
A: > 10 µM (inactive)

Q: And the GI50 (OVCAR-8)?
A: > 10 µM (inactive)

Q: What about the GI50 (HCT-15) of the same molecule?
A: > 10 µM

Q: What about the GI50 (MDA-MB-231) of the same molecule?
A: > 10 µM (inactive)

Q: And the GI50 (OVCAR-5)?
A: > 10 µM (inactive)

Q: And the GI50 (UACC-62)?
A: > 10 µM (inactive)

Q: And the GI50 (A549)?
A: > 10 µM (inactive)

Q: What about the GI50 (RXF 393) of the same molecule?
A: > 10 µM (inactive)

Q: And the GI50 (IGROV-1)?
A: > 10 µM (inactive)
